We go through 31 compounds from ChEMBL document CHEMBL4665881, “Pyrroformyl-containing 2,4-diaminopyrimidine derivatives as a new optimization strategy of ALK inhibitors combating mutations” (Bioorg Med Chem, 2020).

The subject of one test is A549. The test can be described thus: Antiproliferative activity against human A549 cells assessed as reduction in cell viability incubated for 72 hr by MTT assay. Conditions: A549, 72 h. In general terms: Tetrazolium dyes change colour on reduction, which living cells bring about.
The test system of a further test is NCI-H2228. Kind of test: Antiproliferative activity against human H2228 cells assessed as reduction in cell viability incubated for 72 hrs by MTT assay. It counts as functional, cell-based. To be noted: NCI-H2228, 72 h.
For the next test, the system named is KARPAS-299. The test can be described thus: Antiproliferative activity against human Karpas299 cells assessed as reduction in cell viability incubated for 72 hrs by MTT assay. To be noted: KARPAS-299, 72 h.
The target in test [1] is ALK tyrosine kinase receptor (Homo sapiens, UniProt Q9UM73). The test can be described thus: Inhibition of wild-type ALK (unknown origin) incubated for 1 hr.
In test [2] the target is ALK tyrosine kinase receptor (Homo sapiens, UniProt Q9UM73, L1196M). The test can be described thus: Inhibition of ALK L1196M (unknown origin) incubated for 1 hr.

Bounds are passed on as bounds.

One may read the IC50 as the concentration at which inhibition is half-maximal.

ALK tyrosine kinase receptor (Homo sapiens, UniProt Q9UM73, L1196M), sequence (Q9UM73 19-1620 L1196M limits assumed): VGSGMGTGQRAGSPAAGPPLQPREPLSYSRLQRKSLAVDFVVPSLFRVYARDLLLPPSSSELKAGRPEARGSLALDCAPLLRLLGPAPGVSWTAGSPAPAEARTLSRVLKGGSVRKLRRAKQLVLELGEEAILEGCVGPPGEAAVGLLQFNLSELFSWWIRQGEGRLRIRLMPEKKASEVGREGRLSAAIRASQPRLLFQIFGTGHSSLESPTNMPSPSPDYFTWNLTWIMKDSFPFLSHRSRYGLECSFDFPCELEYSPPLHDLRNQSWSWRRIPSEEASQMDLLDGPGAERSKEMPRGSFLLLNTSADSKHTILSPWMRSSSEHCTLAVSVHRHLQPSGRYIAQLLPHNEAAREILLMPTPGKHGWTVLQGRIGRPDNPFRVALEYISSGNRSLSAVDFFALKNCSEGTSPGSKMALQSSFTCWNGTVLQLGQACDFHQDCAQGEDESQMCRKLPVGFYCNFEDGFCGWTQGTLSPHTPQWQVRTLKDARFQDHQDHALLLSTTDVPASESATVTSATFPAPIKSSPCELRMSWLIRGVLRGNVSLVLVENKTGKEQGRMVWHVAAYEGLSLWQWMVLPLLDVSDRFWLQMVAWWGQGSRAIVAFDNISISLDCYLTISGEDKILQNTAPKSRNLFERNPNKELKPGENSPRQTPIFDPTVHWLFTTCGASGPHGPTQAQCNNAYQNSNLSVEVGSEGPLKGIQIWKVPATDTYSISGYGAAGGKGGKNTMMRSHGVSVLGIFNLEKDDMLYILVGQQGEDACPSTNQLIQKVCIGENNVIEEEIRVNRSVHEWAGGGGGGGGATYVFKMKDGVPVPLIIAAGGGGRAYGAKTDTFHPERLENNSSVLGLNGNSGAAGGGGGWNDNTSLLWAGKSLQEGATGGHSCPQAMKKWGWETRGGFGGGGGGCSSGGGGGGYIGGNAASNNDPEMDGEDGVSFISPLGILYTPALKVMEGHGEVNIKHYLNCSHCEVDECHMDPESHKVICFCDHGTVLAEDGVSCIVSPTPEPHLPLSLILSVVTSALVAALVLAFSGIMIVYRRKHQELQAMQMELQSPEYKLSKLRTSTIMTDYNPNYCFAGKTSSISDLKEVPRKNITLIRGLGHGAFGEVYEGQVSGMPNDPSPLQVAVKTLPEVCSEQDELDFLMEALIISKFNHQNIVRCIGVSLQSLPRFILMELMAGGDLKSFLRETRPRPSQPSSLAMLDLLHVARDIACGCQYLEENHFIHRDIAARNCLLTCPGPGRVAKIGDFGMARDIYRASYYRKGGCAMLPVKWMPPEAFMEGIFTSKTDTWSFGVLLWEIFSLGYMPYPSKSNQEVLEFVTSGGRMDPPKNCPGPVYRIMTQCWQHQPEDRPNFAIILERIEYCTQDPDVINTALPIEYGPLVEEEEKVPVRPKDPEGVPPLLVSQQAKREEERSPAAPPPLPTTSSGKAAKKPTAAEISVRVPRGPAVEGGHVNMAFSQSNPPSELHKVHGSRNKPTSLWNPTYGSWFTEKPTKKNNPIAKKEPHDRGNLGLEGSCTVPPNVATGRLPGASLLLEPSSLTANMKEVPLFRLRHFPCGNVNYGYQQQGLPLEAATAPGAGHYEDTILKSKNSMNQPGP
ALK tyrosine kinase receptor (Homo sapiens, UniProt Q9UM73), sequence (Q9UM73 whole entry): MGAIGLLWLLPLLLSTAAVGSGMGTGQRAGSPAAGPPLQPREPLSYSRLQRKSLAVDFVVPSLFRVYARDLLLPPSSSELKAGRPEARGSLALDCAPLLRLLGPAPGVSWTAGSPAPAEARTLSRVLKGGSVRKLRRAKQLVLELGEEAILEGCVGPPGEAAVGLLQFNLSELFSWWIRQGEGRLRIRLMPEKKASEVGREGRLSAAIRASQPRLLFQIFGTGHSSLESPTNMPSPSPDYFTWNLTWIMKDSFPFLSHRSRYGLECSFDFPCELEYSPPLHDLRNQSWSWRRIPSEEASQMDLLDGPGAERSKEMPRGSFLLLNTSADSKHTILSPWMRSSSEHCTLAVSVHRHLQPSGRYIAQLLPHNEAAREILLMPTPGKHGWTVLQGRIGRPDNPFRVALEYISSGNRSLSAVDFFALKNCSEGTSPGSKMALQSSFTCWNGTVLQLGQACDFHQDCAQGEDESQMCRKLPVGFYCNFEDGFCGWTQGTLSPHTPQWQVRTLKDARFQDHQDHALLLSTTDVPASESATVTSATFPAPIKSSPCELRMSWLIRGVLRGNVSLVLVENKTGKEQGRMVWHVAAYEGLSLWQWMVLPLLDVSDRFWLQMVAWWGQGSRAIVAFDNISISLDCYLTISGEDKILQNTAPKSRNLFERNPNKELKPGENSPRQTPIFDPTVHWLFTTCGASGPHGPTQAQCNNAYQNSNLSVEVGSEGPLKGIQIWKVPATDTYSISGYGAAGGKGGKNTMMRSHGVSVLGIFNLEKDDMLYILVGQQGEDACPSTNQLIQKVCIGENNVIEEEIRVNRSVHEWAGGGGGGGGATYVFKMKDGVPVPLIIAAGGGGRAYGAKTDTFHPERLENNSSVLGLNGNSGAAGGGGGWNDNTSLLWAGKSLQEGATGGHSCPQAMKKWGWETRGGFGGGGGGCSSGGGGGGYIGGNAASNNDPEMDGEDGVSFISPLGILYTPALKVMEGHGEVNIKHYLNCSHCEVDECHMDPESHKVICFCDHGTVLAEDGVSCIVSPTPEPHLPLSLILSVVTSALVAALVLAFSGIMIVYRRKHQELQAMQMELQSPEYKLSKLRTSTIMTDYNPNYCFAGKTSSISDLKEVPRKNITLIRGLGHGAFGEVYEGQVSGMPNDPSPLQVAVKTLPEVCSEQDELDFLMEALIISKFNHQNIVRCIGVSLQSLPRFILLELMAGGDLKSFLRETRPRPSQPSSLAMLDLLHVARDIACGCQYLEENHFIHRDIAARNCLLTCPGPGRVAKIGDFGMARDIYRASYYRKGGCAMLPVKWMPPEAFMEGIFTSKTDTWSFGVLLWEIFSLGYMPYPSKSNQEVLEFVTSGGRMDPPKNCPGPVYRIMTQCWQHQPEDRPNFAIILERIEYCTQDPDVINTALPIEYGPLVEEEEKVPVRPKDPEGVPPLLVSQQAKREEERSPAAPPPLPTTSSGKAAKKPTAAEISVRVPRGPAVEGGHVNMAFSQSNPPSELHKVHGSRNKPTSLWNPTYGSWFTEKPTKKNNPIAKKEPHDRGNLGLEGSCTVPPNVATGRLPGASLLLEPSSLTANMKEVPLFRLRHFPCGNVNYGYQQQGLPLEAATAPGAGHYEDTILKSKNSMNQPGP

Turning to `CCN1CCN(C(=O)c2cccn2-c2ccc(Nc3ncc(Cl)c(Nc4ccccc4C(=O)NC)n3)c(OC)c2)CC1`, the IC50 in the test on A549 was determined as 1570 nM; in the test on NCI-H2228, 1270 nM; with KARPAS-299, 940 nM.

As for `CCN(CC)C(=O)c1cccn1-c1ccc(Nc2ncc(Cl)c(Nc3ccccc3NS(C)(=O)=O)n2)c(OC)c1`, the IC50 in the test with A549 was found to be 970 nM; in the test with NCI-H2228 it was 87 nM; in the test with KARPAS-299, 105 nM.

Consider `CNC(=O)c1ccccc1Nc1nc(Nc2ccc(-n3cccc3C(=O)N3CCCC3)cc2OC)ncc1Cl`, for which the IC50 in the test with A549 was greater than 10000 nM; with NCI-H2228, 770 nM; in the test with KARPAS-299, 840 nM.

For `CNC(=O)c1ccccc1Nc1nc(Nc2ccc(-n3cccc3C(=O)N3CCOCC3)cc2OC)ncc1Cl`, the IC50 with A549 was 2210 nM; with NCI-H2228, 840 nM; in the test with KARPAS-299, 1030 nM.

As to `CNC(=O)c1ccccc1Nc1nc(Nc2ccc(-n3cccc3C(=O)N3CCCCC3)cc2OC)ncc1Cl`, the values for the IC50 with A549, in the test with NCI-H2228 and in the test on KARPAS-299 were greater than 10000 nM, 990 nM and 1610 nM, respectively.

Take `CNC(=O)c1ccccc1Nc1nc(Nc2ccc(-n3cccc3C(=O)N3CCN(C)CC3)cc2OC)ncc1Cl`: the IC50 was greater than 10000 nM in the test with A549, 980 nM with NCI-H2228 and 90 nM with KARPAS-299.

In the case of `COc1cc(-n2cccc2C(=O)N2CCCCC2)ccc1Nc1ncc(Cl)c(Nc2ccccc2NS(C)(=O)=O)n1`, the results for the IC50 in the test with A549, with NCI-H2228 and in the test with KARPAS-299 were greater than 10000 nM, 630 nM and 1040 nM, respectively.

Regarding `COc1cc(-n2cccc2C(=O)N2CCN(C)CC2)ccc1Nc1ncc(Cl)c(Nc2ccccc2NS(C)(=O)=O)n1`, the IC50 is greater than 10000 nM in the test with A549, 1050 nM in the test with NCI-H2228 and 970 nM with KARPAS-299.

`COc1cc(-n2cccc2C(=O)N2CCOCC2)ccc1Nc1ncc(Cl)c(Nc2ccccc2NS(C)(=O)=O)n1`: the IC50 in the test with A549 stood at 1770 nM; in the test on NCI-H2228, 610 nM; in the test with KARPAS-299, 640 nM.

For the compound `COC(=O)c1cccn1-c1ccc(Nc2ncc(Cl)c(Nc3ccccc3NS(C)(=O)=O)n2)c(OC)c1`, the values for the IC50 in the test on A549, in the test on NCI-H2228 and in the test with KARPAS-299 were 2510 nM, 950 nM and 790 nM, respectively.

As to `COc1cc(-n2cccc2C(=O)N2CCSCC2)ccc1Nc1ncc(Cl)c(Nc2ccccc2NS(C)(=O)=O)n1`, the IC50 stood at 4.5 nM in test [1]; 8.3 nM in test [2]; 1470 nM in the test on A549; 700 nM with NCI-H2228; 930 nM in the test with KARPAS-299.

Consider `COc1cc(-n2cccc2C(=O)O)ccc1Nc1ncc(Cl)c(Nc2ccccc2NS(C)(=O)=O)n1`, for which the results for the IC50 with A549, with NCI-H2228 and in the test with KARPAS-299 were 1060 nM, 64 nM and 72 nM, respectively.

For the compound `Cc1cc(Nc2ncc(Cl)c(Nc3ccccc3S(=O)(=O)C(C)C)n2)c(OC(C)C)cc1C1CCNCC1` [CERITINIB], the IC50 in the test on NCI-H2228 came to 1070 nM.

As for `CNC(=O)c1ccccc1Nc1nc(Nc2ccc(-n3cccc3C(=O)N3CCC(O)CC3)cc2OC)ncc1Cl`, the IC50 was greater than 10000 nM in the test on A549, 1070 nM in the test with NCI-H2228 and 970 nM in the test on KARPAS-299.

Take `COc1cc(-n2cccc2C(=O)NCCO)ccc1Nc1ncc(Cl)c(Nc2ccccc2NS(C)(=O)=O)n1`: the IC50 in test [1] is 1.9 nM; in test [2] it was 3.1 nM; with A549, greater than 10000 nM; in the test with NCI-H2228, 34 nM; with KARPAS-299, 45 nM.

Turning to `CNC(=O)c1ccccc1Nc1nc(Nc2ccc(-n3cccc3C(=O)N(C)C)cc2OC)ncc1Cl`, the results for the IC50 with A549, in the test with NCI-H2228 and in the test with KARPAS-299 were 4120 nM, 89 nM and 1070 nM, respectively.

`CNC(=O)c1ccccc1Nc1nc(Nc2ccc(-n3cccc3C(=O)N3CCN(CCO)CC3)cc2OC)ncc1Cl`: the IC50 with A549 was greater than 10000 nM; in the test on NCI-H2228, 1410 nM; with KARPAS-299, 430 nM.

On to `COc1cc(-n2cccc2C(=O)N(C)C)ccc1Nc1ncc(Cl)c(Nc2ccccc2NS(C)(=O)=O)n1`, for which the IC50 in the test on A549 was greater than 10000 nM; in the test with NCI-H2228 it was 54 nM; with KARPAS-299, 78 nM.

As to `CNC(=O)c1ccccc1Nc1nc(Nc2ccc(-n3cccc3C(=O)N3CCSCC3)cc2OC)ncc1Cl`, the IC50 in the test with A549 came out at 2180 nM; in the test on NCI-H2228 it was 1040 nM; with KARPAS-299 it was 1140 nM.

As to `COc1cc(-n2cccc2C(=O)N2CCCC2)ccc1Nc1ncc(Cl)c(Nc2ccccc2NS(C)(=O)=O)n1`, the IC50 was determined as 4580 nM in the test on A549, 600 nM in the test on NCI-H2228 and 870 nM with KARPAS-299.

Take `CCN1CCN(C(=O)c2cccn2-c2ccc(Nc3ncc(Cl)c(Nc4ccccc4NS(C)(=O)=O)n3)c(OC)c2)CC1`: the IC50 in test [1] was 8.5 nM; in test [2], 11.7 nM; with A549, greater than 10000 nM; in the test on NCI-H2228, 1130 nM; with KARPAS-299, 1410 nM.

For the compound `CNC(=O)c1ccccc1Nc1nc(Nc2ccc(-n3cccc3C(=O)N3CCC(C)CC3)cc2OC)ncc1Cl`, the IC50 in the test on A549 is greater than 10000 nM; in the test on NCI-H2228, 1070 nM; with KARPAS-299, 2310 nM.

Take `CNC(=O)c1ccccc1Nc1nc(Nc2ccc(-n3cccc3C(=O)O)cc2OC)ncc1Cl`: the figures for the IC50 in the test on A549, in the test on NCI-H2228 and in the test with KARPAS-299 were 2490 nM, 87 nM and 170 nM, respectively.

`COc1cc(-n2cccc2C(=O)N2CC(O)C2)ccc1Nc1ncc(Cl)c(Nc2ccccc2NS(C)(=O)=O)n1`: the IC50 in the test with A549 was 2080 nM; with NCI-H2228, 44 nM; with KARPAS-299, 81 nM.

Regarding `CNC(=O)c1ccccc1Nc1nc(Nc2ccc(-n3cccc3C(=O)N3CC(O)C3)cc2OC)ncc1Cl`, the IC50 in the test with A549 came out at 4130 nM; in the test with NCI-H2228, 44 nM; in the test on KARPAS-299, 740 nM.

`CCN(CC)C(=O)c1cccn1-c1ccc(Nc2ncc(Cl)c(Nc3ccccc3C(=O)NC)n2)c(OC)c1`: the half-inhibitory concentration (IC50) turned out to be 3490 nM in the test with A549, 540 nM with NCI-H2228 and 270 nM with KARPAS-299.

Take `COc1cc(-n2cccc2C(=O)N2CCC(O)CC2)ccc1Nc1ncc(Cl)c(Nc2ccccc2NS(C)(=O)=O)n1`: the IC50 was greater than 10000 nM in the test with A549, 660 nM with NCI-H2228 and 970 nM in the test on KARPAS-299.

As for `CNC(=O)c1ccccc1Nc1nc(Nc2ccc(-n3cccc3C(=O)NCCO)cc2OC)ncc1Cl`, the IC50 in test [1] is 9.6 nM; in test [2] it was 13.4 nM; with A549, greater than 10000 nM; in the test on NCI-H2228, 43 nM; in the test with KARPAS-299 it was 790 nM.

Turning to `COc1cc(-n2cccc2C(=O)N2CCN(CCO)CC2)ccc1Nc1ncc(Cl)c(Nc2ccccc2NS(C)(=O)=O)n1`, the IC50 with A549 is greater than 10000 nM; in the test with NCI-H2228, 1080 nM; in the test on KARPAS-299 it was 1250 nM.

Take `CNC(=O)c1ccccc1Nc1nc(Nc2ccc(-n3cccc3C(=O)OC)cc2OC)ncc1Cl`: the IC50 in the test on A549 stood at 8510 nM; in the test with NCI-H2228 it was 970 nM; with KARPAS-299, 890 nM.

Take `COc1cc(-n2cccc2C(=O)N2CCC(C)CC2)ccc1Nc1ncc(Cl)c(Nc2ccccc2NS(C)(=O)=O)n1`: the IC50 came to 2200 nM with A549, 1050 nM with NCI-H2228 and 1370 nM in the test on KARPAS-299.
